Literature values, collected in patent publication US11458150B2 (priority 2019, dated 2022).

System: pellagra patients
Conditions: in vivo

**Q.** Which “effect on symptoms of pellagra” value does the source give for `O=C(O)c1cccnc1` [nicotinic acid] here?
**A.** The value was “disappearance of many symptoms of the disease”.

**Q.** What about the “time to blanching of acute erythematous dermal lesions with intact epithelium” value of the same compound?
**A.** Its value is at most 48 h.
